Measurements reported in ChEMBL document CHEMBL3853335, “Citrinovirin with a new norditerpene skeleton from the marine algicolous fungus Trichoderma citrinoviride” (Bioorg Med Chem Lett, 2016).
In brackets after ≈: the same amount, converted by molar mass.

Tests used:
Prorocentrum donghaiense = experiment: Growth inhibition of Prorocentrum donghaiense at 100 ug/ml after 12 hrs by light microscopy; type: functional
[1] = Toxicity in Artemia salina assessed as lethality after 24 hrs
Heterosigma akashiwo = experiment: Growth inhibition of Heterosigma akashiwo at 100 ug/ml after 12 hrs by light microscopy; type: functional
Scrippsiella trochoidea = experiment: Growth inhibition of Scrippsiella trochoidea at 100 ug/ml after 12 hrs by light microscopy; type: functional
Chattonella marina = experiment: Growth inhibition of Chattonella marina at 100 ug/ml after 12 hrs by light microscopy; type: functional
Staphylococcus aureus = experiment: Antimicrobial activity against Staphylococcus aureus after 24 hrs by agar diffusion method; type: functional
[2] = system: Colletotrichum gloeosporioides; experiment: Antimicrobial activity against Colletotrichum gloeosporioides after 24 hrs by agar diffusion method; type: functional
Colletotrichum lagenaria = experiment: Antimicrobial activity against Colletotrichum lagenarium after 24 hrs by agar diffusion method; type: functional
Escherichia coli = experiment: Antimicrobial activity against Escherichia coli after 24 hrs by agar diffusion method; type: functional

Molecule | growth inhibition (GI) (Prorocentrum donghaiense) | growth inhibition (GI) (Scrippsiella trochoidea) | growth inhibition (GI) (Chattonella marina) | MIC (Staphylococcus aureus) | also measured
CCCC[C@@H](C)[C@@H]1[C@@H]2C=C[C@H]3[C@H](C)[C@@H](O)[C@@H](O)[C@@H]3[C@]1(C)OC2=O | 14.1% | -47.2% | 37.2% | 12.4 µg/mL (≈ 38.5 µM) | LC50 at 24 h [1]: 65.6 µg/mL (≈ 203 µM); inhibition of growth at 100 µg/mL (Heterosigma akashiwo; read-out: GI): 23.4%
C[C@@H]1[C@H](O)[C@@H](C)/C=C/C=C/C=C/C=C/C=C/C=C/C=C/[C@H](O[C@@H]2O[C@H](C)[C@@H](O)[C@H](N)[C@@H]2O)C[C@@H]2O[C@](O)(C[C@@H](O)C[C@@H](O)[C@H](O)CC[C@@H](O)C[C@@H](O)CC(=O)O[C@H]1C)C[C@H](O)[C@H]2C(=O)O [AMPHOTERICIN B] |  |  |  |  | MIC [2]: 12.4 µg/mL (≈ 13.4 µM); MIC (Colletotrichum lagenaria): 12.4 µg/mL (≈ 13.4 µM)
O=C(N[C@H](CO)[C@H](O)c1ccc([N+](=O)[O-])cc1)C(Cl)Cl [CHLORAMPHENICOL] |  |  |  | 0.8 µg/mL (≈ 2.48 µM) | MIC (Escherichia coli): 1.6 µg/mL (≈ 4.95 µM)
POTASSIUM DICHROMATE [listing 1 of 2 here] |  |  |  |  | LC50 ([1]; 24 h): 20.8 µg/mL
POTASSIUM DICHROMATE [listing 2 of 2 here] | 71.7% | 71.9% | 74.4% |  | growth inhibition (GI) (Heterosigma akashiwo): 78.4%
